According to patent US12146004B2, “Polymyxin compounds and uses thereof” (priority 2014, dated 2024):
In brackets after ≈: the same amount, converted by molar mass.

What was measured:
Type in all cases: cell-based
Pseudomonas aeruginosa = test system: Pseudomonas aeruginosa
Summary of the method: (§1)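 Strain panels of up to nine per species, with resistant and Polymyxin-tolerant strains included, were used for susceptibility testing; read-out was MIC (μg/mL).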

Acinetobacter baumannii = test system: Acinetobacter baumannii
Summary of the method: as §1

Klebsiella pneumoniae = test system: Klebsiella pneumoniae
Summary of the method: as §1

Escherichia coli = test system: Escherichia coli
Summary of the method: as §1

HK-2 cells = test system: HK-2 cells
From the text: Values are reported relative to Polymyxin B.

| Structure (SMILES) | MIC P. aeruginosa 068 (Pseudomonas aeruginosa) | MIC P. aeruginosa 070 (Pseudomonas aeruginosa) | MIC P. aeruginosa ATCC 27853 (Pseudomonas aeruginosa) | MIC A. baumanii 053 (Acinetobacter baumannii) | MIC A. baumanii 056 (Acinetobacter baumannii) | MIC A. baumanii ATCC BAA-747 (Acinetobacter baumannii) | MIC K. pneumoniae 063 (Klebsiella pneumoniae) | MIC K. pneumoniae 065 (Klebsiella pneumoniae) | MIC K. pneumoniae ATCC 4352 (Klebsiella pneumoniae) | MIC E. coli 058 (Escherichia coli) | MIC E. coli 061 (Escherichia coli) | MIC E. coli ATCC 25922 (Escherichia coli) | HK-2 IC50 (HK-2 cells) | MIC P. aeruginosa CCUG 59347 (Pseudomonas aeruginosa) | MIC A. baumanii NCTC 13424 (Acinetobacter baumannii) | MIC K. pneumoniae ATCC 13882 (Klebsiella pneumoniae) | MIC E. coli NCTC 9001 (Escherichia coli) | also measured |
| --- | --- | --- | --- | --- | --- | --- | --- | --- | --- | --- | --- | --- | --- | --- | --- | --- | --- | --- |
| CC(C)CC(CN)C(=O)N[C@H](C(=O)N[C@@H](CN)C(=O)N[C@H]1CCNC(=O)[C@H]([C@@H](C)O)NC(=O)[C@H](CCN)NC(=O)[C@H](CCN)NC(=O)[C@H](CC(C)C)NC(=O)[C@@H](Cc2ccc(Br)cc2)NC(=O)[C@H](CCN)NC1=O)C(C)O (single isomer, unassigned; isomer 2) [Example 14, 2-aminomethyl-4-methyl pentanoyl polymyxin L-Thr-L-Dap-polymyxin [D-(4-bromo Phe)]-6]heptapeptide. Isomer 2] | 8 µg/mL (≈ 6.93 µM) | 16 µg/mL (≈ 13.9 µM) | 0.5 µg/mL (≈ 0.433 µM) | 32 µg/mL (≈ 27.7 µM) | 16 µg/mL (≈ 13.9 µM) | 0.125 µg/mL (≈ 0.108 µM) | 64 µg/mL (≈ 55.4 µM) | 8 µg/mL (≈ 6.93 µM) | 0.25 µg/mL (≈ 0.216 µM) | 4 µg/mL (≈ 3.46 µM) | 16 µg/mL (≈ 13.9 µM) | 0.25 µg/mL (≈ 0.216 µM) | 76 µg/mL | – | – | – | – | MIC K. pneumoniae 062 (Klebsiella pneumoniae): 8 µg/mL (≈ 6.93 µM); MIC K. pneumoniae 064 (Klebsiella pneumoniae): 8 µg/mL (≈ 6.93 µM); MIC K. pneumoniae 066 (Klebsiella pneumoniae): 8 µg/mL (≈ 6.93 µM); MIC K. pneumoniae 067 (Klebsiella pneumoniae): >64 µg/mL; MIC E. coli 059 (Escherichia coli): 8 µg/mL (≈ 6.93 µM); MIC E. coli 060 (Escherichia coli): 8 µg/mL (≈ 6.93 µM) |
| CC(C)CC(CN)C(=O)N[C@H](C(=O)N[C@@H](CN)C(=O)N[C@H]1CCNC(=O)[C@H]([C@@H](C)O)NC(=O)[C@H](CCN)NC(=O)[C@H](CCN)NC(=O)[C@H](CC(C)C)NC(=O)[C@@H](Cc2ccc(-c3ccccc3)cc2)NC(=O)[C@H](CCN)NC1=O)C(C)O (single isomer, unassigned; isomer 2) [Example 16, 2-aminomethyl-4-methyl pentanoyl polymyxin L-Thr-L-Dap-polymyxin [D-(4-phenyl Phe)]-6]heptapeptide. Isomer 2] | 4 µg/mL (≈ 3.47 µM) | 8 µg/mL (≈ 6.94 µM) | 0.5 µg/mL (≈ 0.434 µM) | 16 µg/mL (≈ 13.9 µM) | 4 µg/mL (≈ 3.47 µM) | 0.25 µg/mL (≈ 0.217 µM) | 16 µg/mL (≈ 13.9 µM) | 1 µg/mL (≈ 0.868 µM) | 0.5 µg/mL (≈ 0.434 µM) | 4 µg/mL (≈ 3.47 µM) | 16 µg/mL (≈ 13.9 µM) | 0.25 µg/mL (≈ 0.217 µM) | 32 µg/mL | – | – | – | – | MIC K. pneumoniae 062 (Klebsiella pneumoniae): 4 µg/mL (≈ 3.47 µM); MIC K. pneumoniae 064 (Klebsiella pneumoniae): 2 µg/mL (≈ 1.74 µM); MIC K. pneumoniae 066 (Klebsiella pneumoniae): 4 µg/mL (≈ 3.47 µM); MIC K. pneumoniae 067 (Klebsiella pneumoniae): 32 µg/mL (≈ 27.8 µM); MIC E. coli 059 (Escherichia coli): 1 µg/mL (≈ 0.868 µM); MIC E. coli 060 (Escherichia coli): 5 µg/mL (≈ 4.34 µM) |
| CC(C)Cc1ccc(C[C@H]2NC(=O)[C@H](CCN)NC(=O)[C@@H](NC(=O)[C@H](CN)NC(=O)[C@@H](NC(=O)C3CNCC(CC(C)C)C3)C(C)O)CCNC(=O)[C@H]([C@@H](C)O)NC(=O)[C@H](CCN)NC(=O)[C@H](CCN)NC(=O)[C@H](CC(C)C)NC2=O)cc1 (single isomer, unassigned; isomer 2) [Example 25, (Ttrans-5-(isobutyl-piperidine)-3-carbonyl L-Thr-L-Dap-polymyxin [D-(4-isobutyl Phe)]-6]heptapeptide isomer 2] | 1 µg/mL (≈ 0.853 µM) | 1 µg/mL (≈ 0.853 µM) | 1 µg/mL (≈ 0.853 µM) | – | – | 0.5 µg/mL (≈ 0.426 µM) | 2 µg/mL (≈ 1.71 µM) | 1 µg/mL (≈ 0.853 µM) | 0.25 µg/mL (≈ 0.213 µM) | 1 µg/mL (≈ 0.853 µM) | 0.5 µg/mL (≈ 0.426 µM) | 0.5 µg/mL (≈ 0.426 µM) | 20 µg/mL | 2 µg/mL (≈ 1.71 µM) | 0.5 µg/mL (≈ 0.426 µM) | – | – | – |
| CC(C)C[C@@H]1NC(=O)[C@@H](CC2CCCCC2)NC(=O)[C@H](CCN)NC(=O)[C@@H](NC(=O)[C@H](CN)NC(=O)[C@@H](NC(=O)CC(N)C2CCCCC2)C(C)O)CCNC(=O)[C@H]([C@@H](C)O)NC(=O)[C@H](CCN)NC(=O)[C@H](CCN)NC1=O (single isomer, unassigned; isomer 2) [Example 33, 3-amino-3-cyclohexylpropanoyl L-Thr-L-Dap-polymyxin [D-cyclohexylalanine]-6 heptapeptide. Isomer 2] | 8 µg/mL (≈ 7.22 µM) | 8 µg/mL (≈ 7.22 µM) | 0.25 µg/mL (≈ 0.226 µM) | 64 µg/mL (≈ 57.7 µM) | 32 µg/mL (≈ 28.9 µM) | 0.25 µg/mL (≈ 0.226 µM) | 64 µg/mL (≈ 57.7 µM) | 2 µg/mL (≈ 1.8 µM) | 0.03 µg/mL (≈ 0.0271 µM) | 2 µg/mL (≈ 1.8 µM) | 16 µg/mL (≈ 14.4 µM) | 0.25 µg/mL (≈ 0.226 µM) | 75 µg/mL | 0.5 µg/mL (≈ 0.451 µM) | 0.125 µg/mL (≈ 0.113 µM) | 0.5 µg/mL (≈ 0.451 µM) | 0.125 µg/mL (≈ 0.113 µM) | – |
| CC(C)C[C@@H]1NC(=O)[C@@H](CC2CCCCC2)NC(=O)[C@H](CCN)NC(=O)[C@@H](NC(=O)[C@H](CN)NC(=O)[C@@H](NC(=O)C(CN)Cc2ccccc2)C(C)O)CCNC(=O)[C@H]([C@@H](C)O)NC(=O)[C@H](CCN)NC(=O)[C@H](CCN)NC1=O (single isomer, unassigned; isomer 2) [Example 34, 3-amino-2-benzylpropanoyl L-Thr-L-Dap-polymyxin [D-cyclohexylalanine]-6 heptapeptide. Isomer 2] | 4 µg/mL (≈ 3.58 µM) | 4 µg/mL (≈ 3.58 µM) | 0.25 µg/mL (≈ 0.224 µM) | 32 µg/mL (≈ 28.7 µM) | 16 µg/mL (≈ 14.3 µM) | 0.125 µg/mL (≈ 0.112 µM) | 32 µg/mL (≈ 28.7 µM) | 4 µg/mL (≈ 3.58 µM) | 0.125 µg/mL (≈ 0.112 µM) | 2 µg/mL (≈ 1.79 µM) | 16 µg/mL (≈ 14.3 µM) | 0.25 µg/mL (≈ 0.224 µM) | 99 µg/mL | 0.25 µg/mL (≈ 0.224 µM) | 0.06 µg/mL (≈ 0.0537 µM) | 0.125 µg/mL (≈ 0.112 µM) | 0.125 µg/mL (≈ 0.112 µM) | – |

Second part, led by results:

| MIC P. aeruginosa 068 (Pseudomonas aeruginosa) | MIC P. aeruginosa 070 (Pseudomonas aeruginosa) | MIC P. aeruginosa ATCC 27853 (Pseudomonas aeruginosa) | MIC A. baumanii 053 (Acinetobacter baumannii) | MIC A. baumanii 056 (Acinetobacter baumannii) | MIC A. baumanii ATCC BAA-747 (Acinetobacter baumannii) | MIC K. pneumoniae 063 (Klebsiella pneumoniae) | MIC K. pneumoniae 065 (Klebsiella pneumoniae) | MIC K. pneumoniae ATCC 4352 (Klebsiella pneumoniae) | MIC E. coli 058 (Escherichia coli) | MIC E. coli 061 (Escherichia coli) | MIC E. coli ATCC 25922 (Escherichia coli) | HK-2 IC50 (HK-2 cells) | MIC P. aeruginosa CCUG 59347 (Pseudomonas aeruginosa) | MIC A. baumanii NCTC 13424 (Acinetobacter baumannii) | MIC K. pneumoniae ATCC 13882 (Klebsiella pneumoniae) | MIC E. coli NCTC 9001 (Escherichia coli) | Structure (SMILES) | also measured |
| --- | --- | --- | --- | --- | --- | --- | --- | --- | --- | --- | --- | --- | --- | --- | --- | --- | --- | --- |
| 1 µg/mL (≈ 0.885 µM) | 2 µg/mL (≈ 1.77 µM) | 0.25 µg/mL (≈ 0.221 µM) | >64 µg/mL | 64 µg/mL (≈ 56.6 µM) | 0.5 µg/mL (≈ 0.442 µM) | 16 µg/mL (≈ 14.2 µM) | 0.5 µg/mL (≈ 0.442 µM) | 0.125 µg/mL (≈ 0.111 µM) | 4 µg/mL (≈ 3.54 µM) | 16 µg/mL (≈ 14.2 µM) | 0.25 µg/mL (≈ 0.221 µM) | 152 µg/mL | 0.25 µg/mL (≈ 0.221 µM) | 0.25 µg/mL (≈ 0.221 µM) | 0.06 µg/mL (≈ 0.0531 µM) | 0.06 µg/mL (≈ 0.0531 µM) | CC(C)C[C@@H]1NC(=O)[C@@H](CC2CCCCC2)NC(=O)[C@H](CCN)NC(=O)[C@@H](NC(=O)[C@H](CN)NC(=O)[C@@H](NC(=O)C(CCN)Cc2ccccc2)C(C)O)CCNC(=O)[C@H]([C@@H](C)O)NC(=O)[C@H](CCN)NC(=O)[C@H](CCN)NC1=O (single isomer, unassigned; isomer 2) [Example 35, 4-amino-2-benzylbutanoyl L-Thr-L-Dap-polymyxin [D-cyclohexylalanine]-6 heptapeptide. Isomer 2] | – |
| 4 µg/mL (≈ 3.58 µM) | 4 µg/mL (≈ 3.58 µM) | 0.25 µg/mL (≈ 0.224 µM) | 32 µg/mL (≈ 28.7 µM) | 8 µg/mL (≈ 7.17 µM) | 0.06 µg/mL (≈ 0.0537 µM) | 32 µg/mL (≈ 28.7 µM) | 1 µg/mL (≈ 0.896 µM) | – | 2 µg/mL (≈ 1.79 µM) | 16 µg/mL (≈ 14.3 µM) | 0.06 µg/mL (≈ 0.0537 µM) | 255 µg/mL | 0.25 µg/mL (≈ 0.224 µM) | 0.03 µg/mL (≈ 0.0269 µM) | 0.125 µg/mL (≈ 0.112 µM) | 0.06 µg/mL (≈ 0.0537 µM) | CC(C)C[C@@H]1NC(=O)[C@@H](CC2CCCCC2)NC(=O)[C@H](CCN)NC(=O)[C@@H](NC(=O)[C@H](CN)NC(=O)[C@@H](NC(=O)C(CCN)c2ccccc2)C(C)O)CCNC(=O)[C@H]([C@@H](C)O)NC(=O)[C@H](CCN)NC(=O)[C@H](CCN)NC1=O (single isomer, unassigned; isomer 2) [Example 38, 4-amino-2-phenylbutanoyl L-Thr-L-Dap-polymyxin [D-cyclohexylalanine]-6 heptapeptide. isomer 2] | – |
| 4 µg/mL (≈ 3.65 µM) | 4 µg/mL (≈ 3.65 µM) | 0.5 µg/mL (≈ 0.456 µM) | >32 µg/mL | 32 µg/mL (≈ 29.2 µM) | 0.06 µg/mL (≈ 0.0547 µM) | 16 µg/mL (≈ 14.6 µM) | 1.5 µg/mL (≈ 1.37 µM) | – | 4 µg/mL (≈ 3.65 µM) | 8 µg/mL (≈ 7.3 µM) | 0.125 µg/mL (≈ 0.114 µM) | 206 µg/mL | 0.5 µg/mL (≈ 0.456 µM) | 0.06 µg/mL (≈ 0.0547 µM) | 0.125 µg/mL (≈ 0.114 µM) | 0.06 µg/mL (≈ 0.0547 µM) | CCCCC(CCN)C(=O)N[C@H](C(=O)N[C@@H](CN)C(=O)N[C@H]1CCNC(=O)[C@H]([C@@H](C)O)NC(=O)[C@H](CCN)NC(=O)[C@H](CCN)NC(=O)[C@H](CC(C)C)NC(=O)[C@@H](CC2CCCCC2)NC(=O)[C@H](CCN)NC1=O)[C@@H](C)O (single isomer, unassigned; isomer 2) [Example 41, 2-(2-aminoethyl) hexanoyl L-Thr-L-Dap-polymyxin [D-cyclohexylalanine]-6 heptapeptide. Isomer 2] | cytotoxicity (HK-2 cells): significantly lower cytotoxicity compared with C6 |
